Measured values taken from patent US12419307B2, “Mixtures comprising indazole pesticides” (FMC Corporation, priority 2019, dated 2025).
Where two headings read alike, the source gives them in different places.

Columns and labels:
Format in all cases: in vivo
[1] = tested on: fall armyworm (Spodoptera frugiperda (J. E. Smith)); test: Test E: fall armyworm control on corn plants, plant damage rating and mortality after 6 days; details: Spodoptera frugiperda, 144 h, Table 6e, read-out: Plant Protection (obs)
Method: (§1) The pest control protection afforded by the mixtures or compositions is not limited, however, to these species. The analysis of enhanced activity between the mixtures or compositions was determined using Colby's equation. The average % mortality data for the test compounds alone were inserted into the Colby's equation. If the observed (obs) average % mortality was higher than “p”, the expected (exp) % mortality, the mixture or composition had enhanced effects. If the observed average % mortality was equal to or lower than the expected mortality, the mixture or composition either had no enhanced effect. For bioassays where insect feeding damage was evaluated, enhanced activity is identified when the observed plant damage is less than the expected plant damage rating; ratings ranged between 0 (no damage) and 10 (dead plant) and each value was converted to a % plant protection. 100−(Obs Plant Damage*10)
For evaluating control of fall armyworm (Spodoptera frugiperda (J. E. Smith)) the test unit consisted of a small open container with a 4-5-day-old corn (maize) plant inside. This was pre-infested with 10-15 1-day-old larvae on a piece of insect diet. Test compounds were formulated and sprayed with 3 replications as described for Test A. After spraying of the formulated test compound, the test units were maintained in a growth chamber for 6 days at 25° C. and 70% relative humidity. Plant feeding damage was then visually assessed based on foliage consumed, and larvae were assessed for mortality. Each test unit was then visually assessed for plant damage and rated 0-10, where 0=undamaged and 10=plant is dead; the results are listed in Tables 6d-i.

[2] = tested on: corn planthopper (Peregrinus maidis (Ashmead)); test: Test C: corn planthopper control on corn plants, insect mortality after 6 days; details: Peregrinus maidis, read-out: % Mortality (obs)
Method: as §1
For evaluating control of corn planthopper (Peregrinus maidis (Ashmead)) through contact and/or systemic means, the test unit consisted of a small open container with a 3-4-day-old corn (maize) plant inside. White sand was added to the top of the soil prior to application of the test compound.
Test compounds were formulated and sprayed at 250 and/or 50 ppm and/or 10 ppm. After spraying of the formulated test compound, the test units were allowed to dry for 1 h before they were post-infested with ˜15-20 nymphs (18-to-21-day-old). […]

[3] = tested on: cotton melon aphid (Aphis gossypii Glover); test: Test D: cotton melon aphid control on okra plants, insect mortality after 6 days; details: Aphis gossypii, read-out: % Mortality (obs)
Method: The analysis of enhanced activity between the mixtures or compositions was determined using Colby's equation. The average % mortality data for the test compounds alone were inserted into the Colby's equation. If the observed (obs) average % mortality was higher than “p”, the expected (exp) % mortality, the mixture or composition had enhanced effects. If the observed average % mortality was equal to or lower than the expected mortality, the mixture or composition either had no enhanced effect. For bioassays where insect feeding damage was evaluated, enhanced activity is identified when the observed plant damage is less than the expected plant damage rating; ratings ranged between 0 (no damage) and 10 (dead plant) and each value was converted to a % plant protection. 100−(Obs Plant Damage*10)
For evaluating control of cotton melon aphid (Aphis gossypii Glover) through contact and/or systemic means, each test unit consisted of a small open container with a 6- to 7-day-old okra plant inside. This was pre-infested by placing on a leaf of the test plant 30 to 40 aphids on a piece of leaf excised from a culture plant (cut-leaf method). The […] moved onto the test plant as the leaf piece desiccated. After pre-infestation, the soil of the test unit was covered with a layer of sand.
Test compounds were formulated and sprayed as described for Test A. The applications were replicated three times. After spraying of the formulated test compounds, each test unit was allowed to dry for 1 hour and then a black, screened cap was placed on top. […]

[4] = tested on: Western Flower Thrips (Frankliniella occidentalis Pergande); test: Test B: Western Flower Thrips control on bean plants, plant damage rating converted to % plant protection after 7 days; details: for pest or weed control at 3.18 ppm / pest or weed control at 9.75 ppm / pest or weed control at 1.5 ppm / pest or weed control at 4.5 ppm: Frankliniella occidentalis, 168 h, read-out: Plant Protection (obs); for Plant Damage (obs): Table 3a; for Plant Damage (obs) / Plant Protection (obs): applied alone
Method: as §1
Thus, a plant given a plant damage rating of 3 out of 10 is equivalent to 70% plant protection In all of these tests, compounds of Formula I are Compounds 1 (Cpd 1), 2 (Cpd2), and 3 (Cpd3) and compounds of Formula II are compounds 4 (Cpd4) and 5 (Cpd 5).
For evaluating control of the Western Flower Thrips (Frankliniella occidentalis Pergande) through contact and/or systemic means, each test unit consisted of a small open container with a 5- to 7-day-old bean (var. Soleil) plant inside.
Test solutions were formulated and sprayed with 3 replications as described for Test A. After spraying, the test units were allowed to dry for 1 hour, 22 to 27 adult thrips were added to each unit and then a black, screened cap was placed on top. The test units were held for 7 days at 25° C. and 45-55% relative humidity. To evaluate the level of plant protection provided by each treatment, each test unit was then visually assessed for plant damage inflicted by insect feeding and rated 0-10, where 0=undamaged and 10=plant is dead; the results are listed in Tables 3a-g.

Structure (SMILES): CSCC(C)(C)NC(=O)c1ccc(F)c2nn(-c3cccnc3)cc12 [Cpd 1, N-[1,1-dimethyl-2-(methylthio)ethyl]-7-fluoro-2-(3-pyridinyl)-2H-indazole-4-carboxamide]
- pest or weed control at 50 ppm [1]: 0%
- pest or weed control at 250 ppm [1]: 0%
- mortality at 50 ppm ([2]; 96 h, Table 4d): 14.8%
- mortality at 250 ppm ([2]; 96 h, Table 4d): 45.8%
- mortality at 50 ppm ([2]; Table 4e): 18.9%
- mortality at 250 ppm ([2]; Table 4e): 7.6%
- mortality at 0.08 ppm ([3]; 5 h, Table 5h): 37.3%
- mortality at 0.12 ppm ([3]; 5 h, Table 5h): 50.5%
- mortality at 0.08 ppm ([3]; 120 h, Table 5d): 23.8%
- mortality at 0.12 ppm ([3]; 120 h, Table 5d): 49.8%
- mortality at 0.08 ppm ([3]; Table 5a): 23.8%
- mortality at 0.12 ppm ([3]; Table 5a): 49.8%
- mortality at 0.08 ppm ([3]; Table 5b): 23.8%
- mortality at 0.12 ppm ([3]; Table 5b): 49.8%
- mortality at 0.08 ppm ([3]; Table 5c): 100%
- mortality at 0.12 ppm ([3]; Table 5c): 26.7%
- mortality at 0.08 ppm ([3]; Table 5e): 21.3%
- mortality at 0.12 ppm ([3]; Table 5e): 35.3%
- mortality at 0.08 ppm ([3]; Table 5f): 20.8%
- mortality at 0.12 ppm ([3]; Table 5f): 39.4%
- mortality at 0.08 ppm ([3]; Table 5g): 29.1%
- mortality at 0.12 ppm ([3]; Table 5g): 35.9%
- pest or weed control at 3.18 ppm ([4]; Table 3e, 3.18 ppm): 76.7%
- pest or weed control at 9.75 ppm ([4]; Table 3e, 9.75 ppm): 66.7%
- pest or weed control at 3.18 ppm ([4]; Table 3f, 3.18 ppm): 33.3%
- pest or weed control at 9.75 ppm ([4]; Table 3f, 9.75 ppm): 80%
- pest or weed control at 3.18 ppm ([4]; Table 3g, 3.18 ppm): 10%
- pest or weed control at 9.75 ppm ([4]; Table 3g, 9.75 ppm): 76.7%
- pest or weed control at 3.18 ppm ([4]; Table 3d, 3.18 ppm): 63.3%
- pest or weed control at 9.75 ppm ([4]; Table 3d, 9.75 ppm): 90%
- Plant Damage (obs) ([4]; 3.18 ppm): 33.3%
- Plant Damage (obs) ([4]; 9.75 ppm): 73.3%
- Plant Protection (obs) ([4]; Table 3b, 3.18 ppm): 73.3%
- Plant Protection (obs) ([4]; Table 3b, 9.75 ppm): 76.7%
- Plant Protection (obs) ([4]; Table 3c, 3.18 ppm): 63.3%
- Plant Protection (obs) ([4]; Table 3c, 9.75 ppm): 83.3%

Structure (SMILES): C[S+]([O-])CC(C)(C)NC(=O)c1ccc(F)c2nn(-c3cccnc3)cc12 (stereo not drawn) [Cpd 2, N-[1,1-dimethyl-2-(methylsulfinyl)ethyl]-7-fluoro-2-(3-pyridinyl)-2H-indazole-4-carboxamide]
- pest or weed control at 50 ppm [1]: 0%
- pest or weed control at 250 ppm [1]: 0%
- mortality at 50 ppm ([2]; 96 h, Table 4d): 0%
- mortality at 250 ppm ([2]; 96 h, Table 4d): 54.1%
- mortality at 50 ppm ([2]; Table 4e): 7.3%
- mortality at 250 ppm ([2]; Table 4e): 22.4%
- mortality at 0.05 ppm ([3]; 5 h, Table 5h): 43.9%
- mortality at 0.18 ppm ([3]; 5 h, Table 5h): 57.5%
- mortality at 0.05 ppm ([3]; 120 h, Table 5d): 40.1%
- mortality at 0.18 ppm ([3]; 120 h, Table 5d): 31.4%
- mortality at 0.05 ppm ([3]; Table 5a): 40.1%
- mortality at 0.18 ppm ([3]; Table 5a): 31.4%
- mortality at 0.05 ppm ([3]; Table 5b): 40.1%
- mortality at 0.18 ppm ([3]; Table 5b): 31.4%
- mortality at 0.05 ppm ([3]; Table 5c): 0%
- mortality at 0.18 ppm ([3]; Table 5c): 80%
- mortality at 0.05 ppm ([3]; Table 5e): 16.3%
- mortality at 0.18 ppm ([3]; Table 5e): 37%
- mortality at 0.05 ppm ([3]; Table 5f): 17.1%
- mortality at 0.18 ppm ([3]; Table 5f): 37.2%
- mortality at 0.05 ppm ([3]; Table 5g): 23.4%
- mortality at 0.18 ppm ([3]; Table 5g): 38.3%
- pest or weed control at 1.5 ppm ([4]; Table 3e, 1.5 ppm): 66.7%
- pest or weed control at 4.5 ppm ([4]; Table 3e, 4.5 ppm): 43.3%
- pest or weed control at 1.5 ppm ([4]; Table 3f, 1.5 ppm): 43.3%
- pest or weed control at 4.5 ppm ([4]; Table 3f, 4.5 ppm): 73.3%
- pest or weed control at 1.5 ppm ([4]; Table 3g, 1.5 ppm): 16.7%
- pest or weed control at 4.5 ppm ([4]; Table 3g, 4.5 ppm): 33.3%
- pest or weed control at 1.5 ppm ([4]; Table 3d, 1.5 ppm): 36.7%
- pest or weed control at 4.5 ppm ([4]; Table 3d, 4.5 ppm): 76.7%
- Plant Damage (obs) ([4]; 1.5 ppm): 13.3%
- Plant Damage (obs) ([4]; 4.5 ppm): 56.7%
- Plant Protection (obs) ([4]; Table 3b, 1.5 ppm): 16.7%
- Plant Protection (obs) ([4]; Table 3b, 4.5 ppm): 83.3%
- Plant Protection (obs) ([4]; Table 3c, 1.5 ppm): 43.3%
- Plant Protection (obs) ([4]; Table 3c, 4.5 ppm): 80.0%
